In general, Ki refers to the equilibrium dissociation constant of an inhibitor or competing ligand from its target. Low values mean tighter binding, high ones weaker binding. As a reminder, the logD is lipophilicity at a set pH, counting ionised and neutral species. In general, inhibition refers to the percentage by which the read-out fell short of the control. As usually defined, the fraction unbound is free concentration divided by total concentration. Broadly, the half-life is the time needed for the level to fall by half in the phase considered. Low values mean rapid decline, high ones slow decline. The term Tmax denotes the time from dosing to the highest level.

One data set concerns the target T1, Substance-K receptor (Homo sapiens, UniProt P21452).
T1 sequence (P21452 whole entry): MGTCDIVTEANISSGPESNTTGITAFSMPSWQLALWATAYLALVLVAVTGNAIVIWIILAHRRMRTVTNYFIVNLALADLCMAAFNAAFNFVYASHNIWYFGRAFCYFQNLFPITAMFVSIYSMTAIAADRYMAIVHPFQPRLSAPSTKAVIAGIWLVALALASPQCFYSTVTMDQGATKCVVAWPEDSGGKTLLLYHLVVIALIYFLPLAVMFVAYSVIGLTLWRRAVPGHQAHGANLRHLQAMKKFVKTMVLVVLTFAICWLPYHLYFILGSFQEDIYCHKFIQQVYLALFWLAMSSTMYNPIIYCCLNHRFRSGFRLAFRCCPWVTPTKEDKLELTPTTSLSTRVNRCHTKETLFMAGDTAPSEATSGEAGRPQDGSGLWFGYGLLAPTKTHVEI
Description: Displacement of [125I]NKA from human NK2R expressed in CHO cell membranes after 90 mins by scintillation counting analysis. (In general: Loss of bound radioactivity is the signal in a displacement assay; it reports binding, not function.)

Data set [1] can be described thus: Lipophilicity, log D of the compound at pH 7.4. It counts as physicochemical. To be noted: buffer, read-out: logD.
The target of data set [2] is Kappa-type opioid receptor (Homo sapiens) (UniProt P41145). Put plainly: Inhibition of KOR (unknown origin) at 10 uM relative to control.
Data set [3] has the same target. Description: Inhibition of KOR (unknown origin) at 1 uM relative to control.
Data set [4] deals with Mu-type opioid receptor (Homo sapiens) (UniProt P35372). Put plainly: Inhibition of recombinant human mu opioid receptor expressed in HEK293 cells at 1 uM by radioligand displacement assay relative to control. It counts as cell-based.
Data set [5] has as its target Muscarinic acetylcholine receptor M3 (Homo sapiens) (UniProt P20309). Description: Displacement of [3H]4-DAMP from recombinant human muscarinic M3 receptor expressed in CHO cells at 1 uM after 60 mins by scintillation counting analysis relative to control. The format is cell-based.
In data set [6] the target is Muscarinic acetylcholine receptor M4 (Homo sapiens) (UniProt P08173). Description: Displacement of [3H]4-DAMP from recombinant human muscarinic M4 receptor expressed in CHO cells at 1 uM after 60 mins by scintillation counting analysis relative to control. The format is cell-based.
Data set [7] concerns the target Muscarinic acetylcholine receptor M5 (Homo sapiens) (UniProt P08912). Description: Displacement of [3H]4-DAMP from recombinant human muscarinic M5 receptor expressed in CHO cells at 1 uM after 60 mins by scintillation counting analysis relative to control. It counts as cell-based.
In data set [8] the target is D(3) dopamine receptor (Homo sapiens) (UniProt P35462). Description: Displacement of [3H]methyl-spiperone from recombinant human dopamine D3 receptor expressed in CHO cells at 1 uM by scintillation counting analysis relative to control. The format is cell-based.
Data set [9] deals with Delta-type opioid receptor (Rattus norvegicus) (UniProt P33533). Put plainly: Displacement of [3H]naloxone from delta opioid receptor in rat cerebral cortex at 1 uM after 40 mins by scintillation counting analysis relative to control. The format is tissue-based.
Data set [10] deals with 5-hydroxytryptamine receptor 1A (Homo sapiens) (UniProt P08908). Put plainly: Inhibition of recombinant human 5HT1A receptor expressed in HEK293 cells at 1 uM by radioligand displacement assay relative to control. It counts as cell-based.
The target of data set [11] is 5-hydroxytryptamine receptor 2A (Homo sapiens) (UniProt P28223). Description: Displacement of [3H]ketanserin from recombinant human 5HT2A receptor expressed in HEK293 cells at 1 uM after 60 mins by scintillation counting analysis relative to control. It counts as cell-based.
For data set [12], the target named is 5-hydroxytryptamine receptor 2B (Homo sapiens) (UniProt P41595). Put plainly: Displacement of [3H]mesulergine from recombinant human 5HT2B receptor expressed in CHO cells at 1 uM after 60 mins by scintillation counting analysis relative to control. The format is cell-based.
In data set [13] the target is 5-hydroxytryptamine receptor 7 (Homo sapiens) (UniProt P34969). Put plainly: Inhibition of recombinant human 5HT7 receptor expressed in CHO cells at 1 uM by radioligand displacement assay relative to control. It counts as cell-based.
The target in data set [14] is Histamine H2 receptor (Homo sapiens) (UniProt P25021). Description: Displacement of [125I]APT from recombinant human histamine H2 receptor expressed in CHO cells at 1 uM after 120 mins by scintillation counting analysis relative to control. The format is cell-based.
The target of data set [15] is Sodium-dependent noradrenaline transporter (Homo sapiens) (UniProt P23975). Put plainly: Displacement of [3H]nisoxetine from recombinant human norepinephrine transporter expressed in CHO cells at 1 uM after 120 mins by scintillation counting analysis relative to control. The format is cell-based.
Data set [16] deals with Sodium-dependent dopamine transporter (Homo sapiens) (UniProt Q01959). Description: Displacement of [3H]BTCP from recombinant human dopamine transporter expressed in CHO cells at 1 uM after 120 mins by scintillation counting analysis relative to control. It counts as cell-based.
A short description of data set [17]: Fraction unbound in rat plasma at 5 uM after 4 hrs by equilibrium dialysis method. It counts as ADME, cell-free. A general note: Equilibrium dialysis compares concentrations on both sides of a semipermeable membrane.
Data set [18] deals with Rattus norvegicus. Description: Unbound AUC in Sprague-Dawley rat at 1 mg/kg, iv by LC-MS/MS analysis. The format is ADME, organism-based. The arrangement: dose 1 mg/kg, route intravenous. The following applies: in vivo.
Data set [19] has as its system Rattus norvegicus. Description: Unbound AUC in Sprague-Dawley rat at 3 mg/kg, po by LC-MS/MS analysis. It counts as ADME, organism-based. The arrangement: dose 3 mg/kg, route oral. To be noted: in vivo.
Data set [20] concerns Rattus norvegicus. Description: Unbound Cmax in Sprague-Dawley rat at 3 mg/kg, po by LC-MS/MS analysis. The format is ADME, organism-based. The following applies: in vivo. The arrangement: dose 3 mg/kg, route oral.
Data set [21] in a line: Fraction unbound in rat brain at 5 uM after 4 hrs by equilibrium dialysis method. It counts as ADME, tissue-based.
Data set [22] concerns the target Kappa-type opioid receptor (Rattus norvegicus) (UniProt P34975). Description: Inhibition of rat recombinant KOR expressed in CHO cells at 1 uM by radioligand displacement assay relative to control. The format is cell-based.
Data set [23] is described as follows: in vivo. The following applies: Sprague-Dawley, rat, iv, 1 mg/kg.
Data set [24] in a line: in vivo. The following applies: Sprague-Dawley, rat, po, 3 mg/kg.

The structures appear in SMILES notation.

Kappa-type opioid receptor (Homo sapiens), sequence (P41145 whole entry): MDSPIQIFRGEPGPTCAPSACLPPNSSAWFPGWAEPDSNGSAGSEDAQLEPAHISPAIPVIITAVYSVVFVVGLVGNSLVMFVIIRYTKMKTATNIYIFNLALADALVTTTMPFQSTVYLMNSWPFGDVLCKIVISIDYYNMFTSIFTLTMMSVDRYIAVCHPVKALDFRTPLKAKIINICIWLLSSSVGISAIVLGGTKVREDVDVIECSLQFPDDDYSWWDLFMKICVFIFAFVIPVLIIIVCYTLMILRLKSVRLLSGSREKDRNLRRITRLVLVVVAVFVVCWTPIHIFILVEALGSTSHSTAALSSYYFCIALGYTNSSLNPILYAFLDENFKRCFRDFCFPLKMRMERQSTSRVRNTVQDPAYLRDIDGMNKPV
Muscarinic acetylcholine receptor M5 (Homo sapiens), sequence (P08912 whole entry): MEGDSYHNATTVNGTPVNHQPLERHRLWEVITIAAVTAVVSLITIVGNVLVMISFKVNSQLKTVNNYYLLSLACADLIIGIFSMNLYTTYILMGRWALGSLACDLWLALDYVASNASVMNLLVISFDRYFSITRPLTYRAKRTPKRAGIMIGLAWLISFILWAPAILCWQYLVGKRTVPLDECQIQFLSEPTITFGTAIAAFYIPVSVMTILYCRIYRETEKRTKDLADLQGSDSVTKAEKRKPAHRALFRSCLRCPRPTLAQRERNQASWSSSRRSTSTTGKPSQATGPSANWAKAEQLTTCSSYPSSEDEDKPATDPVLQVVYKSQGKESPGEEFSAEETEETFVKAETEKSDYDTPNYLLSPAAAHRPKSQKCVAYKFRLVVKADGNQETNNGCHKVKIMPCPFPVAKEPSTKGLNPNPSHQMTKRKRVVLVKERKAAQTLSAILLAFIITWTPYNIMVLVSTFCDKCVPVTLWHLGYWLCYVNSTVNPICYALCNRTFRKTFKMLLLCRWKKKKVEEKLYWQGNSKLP
Mu-type opioid receptor (Homo sapiens), sequence (P35372 whole entry): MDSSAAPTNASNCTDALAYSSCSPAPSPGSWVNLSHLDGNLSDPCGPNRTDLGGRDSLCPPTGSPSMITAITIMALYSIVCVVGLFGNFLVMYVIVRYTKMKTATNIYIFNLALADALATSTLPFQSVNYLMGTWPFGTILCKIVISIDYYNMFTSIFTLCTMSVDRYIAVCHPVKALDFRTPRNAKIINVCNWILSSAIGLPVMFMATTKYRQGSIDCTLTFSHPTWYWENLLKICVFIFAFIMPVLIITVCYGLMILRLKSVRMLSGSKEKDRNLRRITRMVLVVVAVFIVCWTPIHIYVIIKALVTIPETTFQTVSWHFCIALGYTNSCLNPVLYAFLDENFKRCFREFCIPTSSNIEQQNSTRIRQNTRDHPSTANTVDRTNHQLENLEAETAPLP
5-hydroxytryptamine receptor 7 (Homo sapiens), sequence (P34969 whole entry): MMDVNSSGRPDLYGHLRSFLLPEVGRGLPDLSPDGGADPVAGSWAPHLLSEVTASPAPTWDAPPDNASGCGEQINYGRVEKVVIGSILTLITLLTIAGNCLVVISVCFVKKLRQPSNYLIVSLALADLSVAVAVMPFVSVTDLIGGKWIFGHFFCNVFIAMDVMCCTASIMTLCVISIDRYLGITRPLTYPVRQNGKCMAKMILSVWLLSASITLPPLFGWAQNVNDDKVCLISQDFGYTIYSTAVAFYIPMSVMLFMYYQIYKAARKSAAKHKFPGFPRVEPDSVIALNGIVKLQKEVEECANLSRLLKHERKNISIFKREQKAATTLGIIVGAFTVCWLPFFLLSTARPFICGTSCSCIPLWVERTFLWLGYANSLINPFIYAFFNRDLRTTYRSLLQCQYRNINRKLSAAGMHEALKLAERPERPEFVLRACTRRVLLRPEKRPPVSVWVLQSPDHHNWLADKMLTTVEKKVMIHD
Sodium-dependent dopamine transporter (Homo sapiens), sequence (Q01959 whole entry): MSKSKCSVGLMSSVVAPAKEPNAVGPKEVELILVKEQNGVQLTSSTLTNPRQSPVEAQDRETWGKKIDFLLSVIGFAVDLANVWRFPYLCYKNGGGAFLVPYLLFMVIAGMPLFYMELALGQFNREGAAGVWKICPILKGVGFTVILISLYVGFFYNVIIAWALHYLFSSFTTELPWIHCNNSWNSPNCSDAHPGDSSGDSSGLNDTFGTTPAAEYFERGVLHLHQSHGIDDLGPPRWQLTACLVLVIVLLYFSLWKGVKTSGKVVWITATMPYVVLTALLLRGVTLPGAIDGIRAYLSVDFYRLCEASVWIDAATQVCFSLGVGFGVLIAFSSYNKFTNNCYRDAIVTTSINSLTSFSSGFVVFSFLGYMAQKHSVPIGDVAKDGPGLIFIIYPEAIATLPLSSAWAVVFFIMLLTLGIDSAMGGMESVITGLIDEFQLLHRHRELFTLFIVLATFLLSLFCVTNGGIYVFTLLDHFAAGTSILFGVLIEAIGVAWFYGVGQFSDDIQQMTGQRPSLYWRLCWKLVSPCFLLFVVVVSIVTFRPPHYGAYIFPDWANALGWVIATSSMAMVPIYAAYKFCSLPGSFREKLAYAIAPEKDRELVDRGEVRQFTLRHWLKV
Histamine H2 receptor (Homo sapiens), sequence (P25021 whole entry): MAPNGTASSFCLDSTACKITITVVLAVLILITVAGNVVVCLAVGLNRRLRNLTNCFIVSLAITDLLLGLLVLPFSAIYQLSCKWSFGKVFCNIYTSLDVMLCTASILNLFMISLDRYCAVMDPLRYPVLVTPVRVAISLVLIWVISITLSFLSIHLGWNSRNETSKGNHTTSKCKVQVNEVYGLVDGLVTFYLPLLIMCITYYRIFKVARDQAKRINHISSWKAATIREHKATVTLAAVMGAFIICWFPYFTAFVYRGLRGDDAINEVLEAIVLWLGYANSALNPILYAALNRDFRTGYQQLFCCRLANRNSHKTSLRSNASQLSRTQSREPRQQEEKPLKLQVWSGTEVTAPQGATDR
5-hydroxytryptamine receptor 1A (Homo sapiens), sequence (P08908 whole entry): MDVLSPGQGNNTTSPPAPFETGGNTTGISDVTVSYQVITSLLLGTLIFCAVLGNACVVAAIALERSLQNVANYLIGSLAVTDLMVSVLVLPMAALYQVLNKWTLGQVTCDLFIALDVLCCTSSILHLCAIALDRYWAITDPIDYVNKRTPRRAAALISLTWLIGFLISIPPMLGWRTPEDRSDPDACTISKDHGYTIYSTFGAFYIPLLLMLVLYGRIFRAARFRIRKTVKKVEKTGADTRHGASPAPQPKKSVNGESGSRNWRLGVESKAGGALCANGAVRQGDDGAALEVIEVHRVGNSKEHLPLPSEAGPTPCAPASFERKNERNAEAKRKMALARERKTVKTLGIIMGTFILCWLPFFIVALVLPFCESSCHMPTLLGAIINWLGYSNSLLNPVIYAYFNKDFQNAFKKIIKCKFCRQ
Sodium-dependent noradrenaline transporter (Homo sapiens), sequence (P23975 whole entry): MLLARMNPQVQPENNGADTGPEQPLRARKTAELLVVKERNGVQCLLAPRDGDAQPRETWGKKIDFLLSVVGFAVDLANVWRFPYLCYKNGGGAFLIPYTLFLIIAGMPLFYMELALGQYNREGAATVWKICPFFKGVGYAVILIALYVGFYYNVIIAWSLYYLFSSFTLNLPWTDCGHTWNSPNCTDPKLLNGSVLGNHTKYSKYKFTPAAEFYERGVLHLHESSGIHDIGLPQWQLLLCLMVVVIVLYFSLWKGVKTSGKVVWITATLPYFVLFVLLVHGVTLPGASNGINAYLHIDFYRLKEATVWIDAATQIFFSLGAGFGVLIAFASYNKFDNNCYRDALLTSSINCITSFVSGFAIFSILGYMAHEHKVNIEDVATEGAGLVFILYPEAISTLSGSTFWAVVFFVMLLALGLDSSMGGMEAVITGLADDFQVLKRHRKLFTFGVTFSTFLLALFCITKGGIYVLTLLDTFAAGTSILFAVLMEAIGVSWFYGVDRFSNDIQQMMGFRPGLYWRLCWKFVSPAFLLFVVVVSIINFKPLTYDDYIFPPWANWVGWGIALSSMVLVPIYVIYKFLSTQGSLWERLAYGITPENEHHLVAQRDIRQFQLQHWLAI
Muscarinic acetylcholine receptor M3 (Homo sapiens), sequence (P20309 whole entry, looked up): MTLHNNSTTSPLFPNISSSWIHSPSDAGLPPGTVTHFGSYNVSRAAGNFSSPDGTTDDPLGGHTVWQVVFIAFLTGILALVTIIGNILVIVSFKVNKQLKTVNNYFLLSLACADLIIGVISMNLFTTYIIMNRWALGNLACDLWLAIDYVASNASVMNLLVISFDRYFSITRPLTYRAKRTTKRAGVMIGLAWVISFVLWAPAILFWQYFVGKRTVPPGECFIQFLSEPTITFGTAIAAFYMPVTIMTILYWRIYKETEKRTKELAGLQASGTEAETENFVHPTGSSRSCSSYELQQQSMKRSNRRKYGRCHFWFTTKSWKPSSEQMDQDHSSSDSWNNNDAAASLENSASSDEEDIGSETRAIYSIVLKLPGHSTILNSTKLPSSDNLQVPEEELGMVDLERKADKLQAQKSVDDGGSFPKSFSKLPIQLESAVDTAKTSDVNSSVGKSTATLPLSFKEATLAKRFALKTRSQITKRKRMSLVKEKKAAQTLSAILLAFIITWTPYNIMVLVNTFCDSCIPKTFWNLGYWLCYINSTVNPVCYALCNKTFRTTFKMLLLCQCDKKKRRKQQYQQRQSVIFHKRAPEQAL
Delta-type opioid receptor (Rattus norvegicus), sequence (P33533 whole entry): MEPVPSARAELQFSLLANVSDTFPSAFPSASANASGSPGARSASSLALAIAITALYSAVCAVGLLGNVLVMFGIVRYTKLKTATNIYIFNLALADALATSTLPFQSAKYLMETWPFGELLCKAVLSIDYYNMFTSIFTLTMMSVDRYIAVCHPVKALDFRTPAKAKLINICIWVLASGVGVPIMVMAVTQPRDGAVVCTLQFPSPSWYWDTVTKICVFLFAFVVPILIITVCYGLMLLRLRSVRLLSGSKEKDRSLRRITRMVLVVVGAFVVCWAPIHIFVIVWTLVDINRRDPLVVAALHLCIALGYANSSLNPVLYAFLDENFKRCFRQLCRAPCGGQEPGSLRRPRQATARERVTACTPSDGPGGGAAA

`CSCC[C@H](NC(=O)[C@H](CC(C)C)NC(=O)CNC(=O)[C@@H](NC(=O)[C@H](Cc1ccccc1)NC(=O)[C@H](Cc1ccccc1)NC(=O)[C@H](CC(=O)O)NC(=O)[C@H](Cc1c[nH]cn1)NC(=O)[C@H](CCSC)NC(=O)[C@@H](N)CC(=O)O)C(C)C)C(N)=O` [NEUROKININ B]: affinity on Substance-K receptor was put at a Ki of 15.8 nM.

Consider `CC(=O)N(C)C1(c2ccccc2)CCN(CCC[C@]2(c3ccc(Cl)c(Cl)c3)CCCN(C(=O)c3ccccc3)C2)CC1` [OSANETANT], for which, in data set [1], the logD was 3.4. The inhibition in data set [2] is 100%; in [3], 75%; in data set [4] it was more than 50%; in [5] it was more than 50%; in data set [6], more than 50%; in [7], more than 50%. Besides, the inhibition in [8], in data set [9], in data set [10], in [11], in data set [12] and in [13] was more than 50% each time. Besides, the inhibition in data set [14], in [15], in [16] and in data set [22] was more than 50% throughout. Also, the fraction unbound at 4 h, 5 µM in data set [17] is 0.006; in data set [21], 0.001. Also, the fAUC in the data set with Rattus norvegicus [18] is 0.2 µM·min; in the data set on Rattus norvegicus [19], 0.1 µM·min. In the data set on Rattus norvegicus [20], the fCmax is recorded as 0.42 nM. Besides, the half-life in the data set “in vivo [23]” was determined as 2.02 h. For the same compound, the Tmax in the data set “in vivo [24]” is 0.75 h.
